Data on 20 molecules can be found in paper PMC12320831, “Synthesis and Biological Evaluation of New Chalcogen Semicarbazone (S, Se) and Their Azole Derivatives against Chagas Disease” (Journal of Medicinal Chemistry, 2024).

Series [1] is described as follows: Host cell cytotoxicity (C2C12 viability). Type of series: cell-based, Mouse. Conditions: mouse; for viability at 48 h, 10 µM: < 50% viability considered cytotoxic. Here is the method:
Antiparasitic activity and cytotoxicity of compounds were determined as described before (da Silva et al., Boudreau et al.). Mouse myoblasts cell line C2C12 (ATCCCRL-1772), were maintained in high glucose (4.5 g/L glucose) Dulbecco’s modified Eagle’s medium (DMEM Gibco), supplemented with 1% penicillin–streptomycin 10,000 U/mL (Gibco) and 5% fetal bovine serum (FBS, Sigma-Aldrich) at 37 °C with 5% CO2. parasites (CAI/72 strain, DTU TcI) were maintained by weekly coinfection with C2C12 cells. For all activity assays, C2C12 cells were infected at a 10:1 parasite-to-cell ratio with culture-derived trypomastigotes, which were harvested from the supernatant of infected C2C12 cells. After adding compounds to 384-well black clear-bottom plates (Greiner cat. no. 781091), trypomastigotes (7000 parasites/well) and C2C12 cells (700 cells/well) were seeded in a total volume of 50 μL of DMEM per well in the 384-well plates. Compounds were first tested at 10 μM. […] After 48 h at 37 °C and 5% CO2, plates were fixed with 4% formaldehyde solution for at least 1 h, washed with 1× PBS, and stained with 5 μg/mL of 4′,6-diamidino-2-phenylindole (DAPI) for at least 1 h prior to reading. Plates were imaged with the automated ImageXpress MicroXL microscope (Molecular Devices) and analyzed by MetaXpress software (Molecular Devices) using a custom module optimized for this assay. Infection levels (parasites per host cell) were normalized to the positive control (40 μM BNZ) and negative control (DMSO). Antiparasitic activity (EC50) ± standard deviation (SD) and host cell cytotoxicity (C2C12 viability) values were determined from the DRC using Prism software (GraphPad Software, La Jolla, CA). Every assay has three biological replicates, each in triplicates (n = 9 data points).

The target of a further series is T1, recombinant Cz (cruzain) (Trypanosoma cruzi, UniProt P25779).
T1 construct: Cz was expressed and purified as described in da Silva et al; made in house
T1 sequence (P25779 123-337 limits assumed): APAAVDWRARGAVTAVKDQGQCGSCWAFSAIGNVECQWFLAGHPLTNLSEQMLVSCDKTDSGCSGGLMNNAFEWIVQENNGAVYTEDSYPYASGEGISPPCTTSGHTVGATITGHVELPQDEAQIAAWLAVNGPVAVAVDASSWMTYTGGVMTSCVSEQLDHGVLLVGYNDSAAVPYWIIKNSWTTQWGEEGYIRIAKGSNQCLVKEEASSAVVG
Nature of the series: biochemical. Conditions: read-out: Cz inhibition (%), 10 µM. Here is the method: The screening assay was performed using 1 nM of Cz diluted in 0.1 M sodium acetate pH 5.5, 1 mM dithiothreitol (DTT), and 0.01% Triton X-100. Cz was expressed and purified as described in da Silva et al. The reaction starts after 10 min incubating the enzyme with the compounds (10 μM), when adding 2.5 μM of the substrate Z-FR-AMC final concentration (Z-Phe-Arg-amidomethylcoumarin, Sigma-Aldrich, C9521) diluted in the same assay buffer (final volume of 30 μL). The experiment was performed for 10 min. […] The DRC was performed with at least nine different concentrations of the inhibitors, diluted by 2-fold serial dilution, ranging from […] to 10 μM.
All experiments were accomplished in a 384-well black microplate, using a Synergy HTX (Biotek) plate reader at 25 °C with absorption/emission wavelengths of 360/460 nm. All assays were performed in triplicate wells and DMSO was used as a vehicle control. Enzymatic activity was measured and normalized to DMSO controls, and the inhibitor E-64 (10 μM) was used as a positive control for all assays. All experiments were performed in triplicates, with at least two independent assays (n = 6 data points). IC50 values were determined through nonlinear regression. Obtained data were treated and analyzed using GraphPad Prism 9.0 (GraphPad Software, La Jolla, California).

A further series concerns T. cruzi CAI/72 strain. Nature of the series: Antiparasitic activity in C2C12 cells infected with T. cruzi CAI/72 (image-based assay). It is filed as cell-based. The note with it: Trypanosoma cruzi. As to the method:
Antiparasitic activity and cytotoxicity of compounds were determined as described before (da Silva et al., Boudreau et al.). Mouse myoblasts cell line C2C12 (ATCCCRL-1772), were maintained in high glucose (4.5 g/L glucose) Dulbecco’s modified Eagle’s medium (DMEM Gibco), supplemented with 1% penicillin–streptomycin 10,000 U/mL (Gibco) and 5% fetal bovine serum (FBS, Sigma-Aldrich) at 37 °C with 5% CO2. parasites (CAI/72 strain, DTU TcI) were maintained by weekly coinfection with C2C12 cells. For all activity assays, C2C12 cells were infected at a 10:1 parasite-to-cell ratio with culture-derived trypomastigotes, which were harvested from the supernatant of infected C2C12 cells. After adding compounds to 384-well black clear-bottom plates (Greiner cat. no. 781091), trypomastigotes (7000 parasites/well) and C2C12 cells (700 cells/well) were seeded in a total volume of 50 μL of DMEM per well in the 384-well plates. Compounds were first tested at 10 μM. […] Plates were imaged with the automated ImageXpress MicroXL microscope (Molecular Devices) and analyzed by MetaXpress software (Molecular Devices) using a custom module optimized for this assay. Infection levels (parasites per host cell) were normalized to the positive control (40 μM BNZ) and negative control (DMSO). Antiparasitic activity (EC50) ± standard deviation (SD) and host cell cytotoxicity (C2C12 viability) values were determined from the DRC using Prism software (GraphPad Software, La Jolla, CA). Every assay has three biological replicates, each in triplicates (n = 9 data points).

[2] abbreviates: C2C12 myoblast cells infected with trypomastigotes.
The mark [3] stands for this setting: 10 µM, C2C12 infected cells, read-out: Anti-Tc CAI/72 activity (%).
The mark [4] stands for this setting: C2C12, read-out: Anti-Tc CAI/72 activity (%).

Counter-ions that a name gives are not always drawn. Like-named read-outs stand apart in the source and are kept apart here.

For `C/C(=N\NC(N)=S)c1ccc(F)c(F)c1` [Compound S1j, (E)-2-(1-(3,4-Difluorophenyl)ethylidene)hydrazine-1-carbothioamide], the viability at 48 h, 10 µM in series [1] (setting [2]) is above 100%. For the same molecule, the inhibition at 10 µM is 99.8% at recombinant Cz (cruzain) and 49.9% with T. cruzi CAI/72 strain (setting [3]).

`COc1ccc(/C(C)=N/Nc2nc(C)cs2)c(OC)c1` [Compound S2k, (E)-2-(2-(1-(2,4-Dimethoxyphenyl)ethylidene)hydrazineyl)-4-methylthiazole Hydrochloride] showed a viability at 48 h, 10 µM in series [1] (setting [2]) above 100%. Also, the inhibition at 10 µM on recombinant Cz (cruzain) was found to be 34.2%; with T. cruzi CAI/72 strain (setting [3]), 46%.

Regarding `COc1ccc(C/C(C)=N/NC(N)=S)cc1` [Compound S1n, (E)-2-(1-(4-Methoxyphenyl)propan-2-ylidene)hydrazine-1-carbothioamide], the viability at 48 h, 10 µM in series [1] (setting [2]) is above 100%. For the same molecule, the figures for the inhibition at 10 µM on recombinant Cz (cruzain) and with T. cruzi CAI/72 strain (setting [3]) were 56.2% and 34.5%, respectively.

As for `C/C(=N\Nc1nc(C)cs1)c1ccc(Br)cc1` [Compound S2f, (E)-2-(2-(1-(4-Bromophenyl)ethylidene)hydrazineyl)-4-methylthiazole hydrochloride], the viability at 48 h, 10 µM in series [1] (setting [2]) is above 100%. For the same molecule, the inhibition at 10 µM worked out at 53% on recombinant Cz (cruzain) and 1.1% in the series with T. cruzi CAI/72 strain (setting [3]).

In series [1], `COc1cccc(/C(C)=N/Nc2nc(C)c[se]2)c1` [Se2g, (E)-2-(2-(1-(3-Methoxyphenyl)ethylidene)hydrazineyl)-4-methyl-1,3-selenazole Hydrochloride] came in with a viability at 48 h, 10 µM above 100%. Besides, the CC50 at 48 h in series [1] (viability calculated at 10 μM) is above 10 µM. The results for the inhibition at 10 µM at recombinant Cz (cruzain) and with T. cruzi CAI/72 strain (setting [4]) were 62.9% and 55.1%, respectively. Further, in the series on T. cruzi CAI/72 strain (C2C12, 48 h, read-out: EC50 Tc CAI/72, intracellular amastigotes in C2C12 cells, 48 h, mean of three experiments in triplicate (n = 9) ± SD), the EC50 is 2.67 ± 1.13 µM.

For the molecule `C/C(=N\Nc1nc(C)c[se]1)c1ccc(C(F)(F)F)cc1` [Se2d, (E)-4-Methyl-2-(2-(1-(4-(trifluoromethyl)phenyl)ethylidene)hydrazineyl)-1,3-selenazole Hydrochloride], in series [1], the viability at 48 h, 10 µM was 96.1%. Moreover, the inhibition at 10 µM worked out at 95.2% on recombinant Cz (cruzain) and 27.9% in the series on T. cruzi CAI/72 strain (setting [4]).

`C/C(=N\NC(N)=[Se])c1cc2ccccc2o1` [Se1p, (E)-2-(1-(Benzofuran-2-yl)ethylidene)hydrazine-1-carboselenoamide] showed a viability at 48 h, 10 µM in series [1] of 39.4%. In addition, the inhibition at 10 µM came out at 102% on recombinant Cz (cruzain) and 28.8% with T. cruzi CAI/72 strain (setting [4]).

`C/C(=N\NC(N)=S)c1ccc([N+](=O)[O-])cc1` [Compound S1c, (E)-2-(1-(4-Nitrophenyl)ethylidene)hydrazine-1-carbothioamide] showed a viability at 48 h, 10 µM in series [1] (setting [2]) above 100%. Also, the results for the inhibition at 10 µM at recombinant Cz (cruzain) and in the series with T. cruzi CAI/72 strain (setting [3]) were 97.6% and 20.6%, respectively.

The molecule `C/C(=N\NC(N)=S)c1csc2ccccc12` [Compound S1o, (E)-2-(1-(Benzo[b]thiophen-3-yl)ethylidene)hydrazine-1-carbothioamide] displayed a viability at 48 h, 10 µM in series [1] (setting [2]) above 100%. Further, the results for the inhibition at 10 µM at recombinant Cz (cruzain) and with T. cruzi CAI/72 strain (setting [3]) were 100% and 23.1%, respectively.

In series [1] (setting [2]), `C/C(=N\Nc1nc(C)cs1)c1csc2ccccc12` [Compound S2o, (E)-2-(2-(1-(Benzo[b]thiophen-3-yl)ethylidene)hydrazineyl)-4-methylthiazole Hydrochloride] gave a viability at 48 h, 10 µM above 100%. Moreover, the inhibition at 10 µM came out at 27.9% on recombinant Cz (cruzain) and 45.7% with T. cruzi CAI/72 strain (setting [3]).

The molecule `C/C(=N\Nc1nc(C)c[se]1)c1ccc(C)cc1` [Se2a, (E)-4-Methyl-2-(2-(1-(4-tolyl)ethylidene)hydrazineyl)-1,3-selenazole Hydrochloride] displayed a viability at 48 h, 10 µM in series [1] of 91.9%. In addition, the figures for the inhibition at 10 µM at recombinant Cz (cruzain) and in the series on T. cruzi CAI/72 strain (setting [4]) were 28.6% and 11.1%, respectively.

For `C/C(=N\Nc1nc(C)cs1)c1cc2ccccc2o1` [Compound S2p, (E)-2-(2-(1-(Benzofuran-2-yl)ethylidene)hydrazineyl)-4-methylthiazole Hydrochloride], in series [1] (setting [2]), the viability at 48 h, 10 µM was above 100%. Also, the inhibition at 10 µM at recombinant Cz (cruzain) came to 74.3%; with T. cruzi CAI/72 strain (setting [3]), 31.4%.

In the case of `COc1ccc(/C(C)=N/NC(N)=[Se])cc1` [Se1b, (E)-2-(1-(4-Methoxyphenyl)ethylidene)hydrazine-1-carboselenoamide], the viability at 48 h, 10 µM in series [1] was found to be 40.9%. Further, the values for the inhibition at 10 µM at recombinant Cz (cruzain) and with T. cruzi CAI/72 strain (setting [4]) were 98.9% and 30%, respectively.

In series [1] (setting [2]), `COc1ccc(/C(C)=N/NC(N)=S)c(OC)c1` [Compound S1k, (E,Z)-2-(1-(2,4-Dimethoxyphenyl)ethylidene)hydrazine-1-carbothioamide] had a viability at 48 h, 10 µM above 100%. Moreover, the inhibition at 10 µM at recombinant Cz (cruzain) came out at 39.3%; in the series on T. cruzi CAI/72 strain (setting [3]) it was 0.7%.

Turning to `COc1cccc(/C(C)=N/Nc2nc(C)cs2)c1` [Compound S2g, (E)-2-(2-(1-(3-Methoxyphenyl)ethylidene)hydrazineyl)-4-methylthiazole hydrochloride], the viability at 48 h, 10 µM in series [1] (setting [2]) is above 100%. The inhibition at 10 µM on recombinant Cz (cruzain) stood at 45.1%; in the series with T. cruzi CAI/72 strain (setting [3]) it was 40.6%.

Consider `C/C(=N\Nc1nc(C)c[se]1)c1ccc(Br)cc1` [Se2f, (E)-2-(2-(1-(4-Bromophenyl)ethylidene)hydrazineyl)-4-methyl-1,3-selenazole Hydrochloride], for which, in series [1], the viability at 48 h, 10 µM was 87.7%. The inhibition at 10 µM came out at 98.6% at recombinant Cz (cruzain) and 18.3% with T. cruzi CAI/72 strain (setting [4]).

In series [1], `C/C(=N\Nc1nc(C)c[se]1)c1csc2ccccc12` [Se2o, (E)-2-(2-(1-(Benzo[b]thiophen-3-yl)ethylidene)hydrazineyl)-4-methyl-1,3-selenazole Hydrochloride] registered a viability at 48 h, 10 µM above 100%. Besides, the inhibition at 10 µM on recombinant Cz (cruzain) came to 101%; in the series with T. cruzi CAI/72 strain (setting [4]), 42.3%.

Take `C/C(=N\NC(N)=[Se])c1ccsc1` [Se1l, (E)-2-(1-(Thiophen-3-yl)ethylidene)hydrazine-1-carboselenoamide]: the viability at 48 h, 10 µM in series [1] is 38.1%. In addition, the values for the inhibition at 10 µM at recombinant Cz (cruzain) and in the series on T. cruzi CAI/72 strain (setting [4]) were 90.1% and 30.5%, respectively.

As to `C/C(=N\NC(N)=S)c1cc2ccccc2o1` [Compound S1p, (E)-2-(1-(Benzofuran-2-yl)ethylidene)hydrazine-1-carbothioamide], the viability at 48 h, 10 µM in series [1] (setting [2]) is above 100%. Further, the inhibition at 10 µM at recombinant Cz (cruzain) came out at 99.3%; in the series on T. cruzi CAI/72 strain (setting [3]), 49.7%.

For the molecule `COc1cccc(/C(C)=N/N=C(/N)S)c1` [Compound S1g, (E)-2-(1-(3-Methoxyphenyl)ethylidene)hydrazine-1-carbothioamide], the viability at 48 h, 10 µM in series [1] (setting [2]) was above 100%. Further, the inhibition at 10 µM was found to be 95.3% on recombinant Cz (cruzain) and 22.3% in the series on T. cruzi CAI/72 strain (setting [3]).

Usually viability stands for a per cent measure of how many cells are alive, often set against a control. The low end stands for more harm to the cells, the high end for less harm to the cells. A word on the CC50: it is the concentration giving 50% cytotoxicity.
